The IC50 is the concentration needed to halve the response being measured. Lower therefore signals greater potency.

≈ marks a conversion by molar mass, not a printed value.

What all share (type): functional, cell-based
The test system of assay [1] is HSC-2. Description: Cytotoxicity against human HSC2 cells after 24 hrs by MTT assay. The following applies: HSC-2, 24 h. A general note: Tetrazolium assays rely on reduction of a dye to a coloured formazan, in cell work by metabolically active cells.
Assay [2] can be described thus: Cytotoxicity against human HPC cells after 24 hrs by MTT assay.
The test system of assay [3] is A-375. Briefly: Cytotoxicity against human A375 cells after 24 hrs by MTT assay. To be noted: A-375, 24 h.
Assay [4] has as its system HepG2. Briefly: Cytotoxicity against human HepG2 cells after 24 hrs by MTT assay. The following applies: HepG2, 24 h.

In assay [1], `C=C1CO[C@@]2(O[C@H]3C[C@H]4[C@@H]5CC=C6C[C@@H](O)C[C@@H](O[C@@H]7OC[C@H](O)[C@H](O[C@@H]8OC[C@@H](O)[C@H](O)[C@H]8O)[C@H]7O[C@@H]7O[C@@H](C)[C@H](OC(C)=O)[C@@H](O[C@@H]8OC[C@](O)(CO)[C@H]8O)[C@H]7O)[C@]6(C)[C@H]5CC[C@]4(C)[C@H]3[C@@H]2COC(C)=O)[C@@H](O)[C@H]1O[C@@H]1O[C@H](CO)[C@@H](O)[C@H](O)[C@H]1O` yielded an IC50 of more than 200 mg/L.

In assay [1], `C=C1CO[C@@]2(O[C@H]3C[C@H]4[C@@H]5CC=C6C[C@@H](O)C[C@@H](O[C@@H]7OC[C@H](O)[C@H](O[C@@H]8OC[C@@H](O)[C@H](O)[C@H]8O)[C@H]7O[C@@H]7O[C@@H](C)[C@H](OC(C)=O)[C@@H](O[C@@H]8OC[C@](O)(CO)[C@H]8O)[C@H]7O)[C@]6(C)[C@H]5CC[C@]4(C)[C@H]3[C@@H]2COC(C)=O)[C@@H](O)[C@H]1O` returned a 50% inhibitory concentration (IC50) of 184 mg/L (≈ 167 µM).

Take `C=C1CO[C@@]2(O[C@H]3C[C@H]4[C@@H]5CC=C6C[C@@H](O)C[C@@H](O[C@@H]7OC[C@H](O)[C@H](O[C@@H]8OC[C@@H](O)[C@H](O)[C@H]8O)[C@H]7O[C@@H]7O[C@@H](C)[C@H](OC(C)=O)[C@@H](O[C@@H]8OC[C@](O)(CO)[C@H]8O)[C@H]7O)[C@]6(C)[C@H]5CC[C@]4(C)[C@H]3[C@@H]2C)[C@@H](O)[C@H]1O`: the half-maximal inhibitory concentration (IC50) in assay [1] stood at 86 mg/L (≈ 82.3 µM).

`C[C@]12CC[C@H]3[C@@H](CC[C@]4(O)C[C@@H](O[C@@H]5O[C@H](CO)[C@@H](O)[C@H](O)[C@H]5O)CC[C@]34C=O)[C@@]1(O)CC[C@@H]2c1ccc(=O)oc1`: the IC50 in assay [2] was 0.082 mg/L (≈ 0.142 µM); in assay [1] it was 0.0029 mg/L (≈ 0.00501 µM); in assay [3] it was 0.0086 mg/L (≈ 0.0149 µM); in assay [4], 0.23 mg/L (≈ 0.397 µM).

`COc1cccc2c1C(=O)c1c(O)c3c(c(O)c1C2=O)C[C@@](O)(C(=O)CO)C[C@@H]3O[C@H]1C[C@H](N)[C@H](O)[C@H](C)O1` [DOXORUBICIN]: the half-inhibitory concentration (IC50) was more than 40 mg/L in assay [2], 2.5 mg/L (≈ 4.6 µM) in assay [1], 1.8 mg/L (≈ 3.31 µM) in assay [3] and more than 40 mg/L in assay [4].

With `C[C@@H]1O[C@@H](O[C@H]2CC[C@]3(C=O)[C@H]4CC[C@]5(C)[C@@H](c6ccc(=O)oc6)[C@@H](O)C[C@]5(O)[C@@H]4CC[C@]3(O)C2)[C@H](O)[C@H](O)[C@H]1O`, the IC50 in assay [2] is 9.5 mg/L (≈ 16.4 µM); in assay [1], 0.0085 mg/L (≈ 0.0147 µM); in assay [3] it was 0.055 mg/L (≈ 0.095 µM); in assay [4], 0.74 mg/L (≈ 1.28 µM).

In turn, `C=C1CO[C@@]2(O[C@H]3C[C@H]4[C@@H]5CC=C6C[C@@H](O)C[C@@H](O[C@@H]7OC[C@H](O)[C@H](O[C@@H]8OC[C@@H](O)[C@H](O)[C@H]8O)[C@H]7O[C@@H]7O[C@@H](C)[C@H](OC(C)=O)[C@@H](O[C@@H]8OC[C@](O)(CO)[C@H]8O)[C@H]7O)[C@]6(C)[C@H]5CC[C@]4(C)[C@H]3[C@@H]2C)[C@@H](O)C1` registered an IC50 in assay [1] of 27 mg/L (≈ 26.2 µM).

`C=C1CO[C@@]2(O[C@H]3C[C@H]4[C@@H]5CC=C6C[C@@H](O)C[C@@H](O[C@@H]7OC[C@H](O)[C@H](O[C@@H]8OC[C@@H](O)[C@H](O)[C@H]8O)[C@H]7O[C@@H]7O[C@@H](C)[C@H](OC(C)=O)[C@@H](O[C@@H]8OC[C@](O)(CO)[C@H]8O)[C@H]7O)[C@]6(C)[C@H]5CC[C@]4(C)[C@H]3[C@@H]2COC(C)=O)[C@@H](O)[C@H]1O[C@@H]1O[C@H](C)[C@@H](O)[C@H](O)[C@H]1O` showed an IC50 in assay [1] of more than 200 mg/L.

In the case of `C[C@@H]1O[C@@H](O[C@H]2CC[C@]3(C=O)[C@H]4CC[C@]5(C)[C@@H](c6ccc(=O)oc6)CC[C@]5(O)[C@@H]4CC[C@]3(O)C2)[C@H](O)[C@H](O)[C@H]1O`, the IC50 came to 6.7 mg/L (≈ 11.9 µM) in assay [2], 0.0028 mg/L (≈ 0.00498 µM) in assay [1], 0.0063 mg/L (≈ 0.0112 µM) in assay [3] and 0.25 mg/L (≈ 0.444 µM) in assay [4].
